Data published in US8222260B2, “Substituted 6-anilinopurine derivatives as inhibitors of cytokinin oxidase/dehydrogenase and preparations containing these derivatives” (Univerzita Palackego V Olomouci, priority 2007, dated 2012).

Experiments:
NIH-3T3 (fibroblasts) = test: Calcein AM cytotoxicity assay; assay type: cell-based, Mouse; conditions: 72 hours
Description: (§1) Absence of toxic effects against mammalian (especially human) cell lines in a wide concentration range is one of the requirements on compounds intended for use in agriculture and medicine. Because toxic compounds negatively influence metabolic processes in cells, many standard cytotoxicity assays are based on measurement of metabolisation rate of various artificial substrates. Resulting product is then quantified e.g. by means of spectrometry. The assays can be easily modified for use in 96-well plates. For evaluation of cytotoxic effect of compounds of this invention, a microtiter assay based on quantification of metabolisation of Calcein AM was used. The assay is widely used in drug screening programs and in chemosensitivity testing. In live cells, Calcein AM is enzymatically hydrolysed and accumulation of resulting calcein is manifested by green fluorescence.
(§2) Mouse cell lines B16-F10 (melanoma) and NIH-3T3 (fibroblasts) were used as well. The cells were maintained in Nunc/Corning 80 cm^2 plastic tissue culture flasks and cultured in cell culture medium (DMEM with 5 g/l glucose, 2 mM glutamine, 100 U/ml penicillin, 100 μg/ml streptomycin, 10% fetal calf serum and sodium bicarbonate).
(§3) The cell suspensions were prepared and diluted according to the particular cell type and the expected target cell density (2.500-30.000 cells per well based on cell growth characteristics) and pippetted (80 μl) into 96-well plates. Inoculates were allowed a pre-incubation period of 24 hours at 37° C. and 5% CO2 for stabilisation. Tested compound was added in total volume of 20 μl of water at time zero. Usually, test compound was evaluated at six 3-fold dilutions. […] All drug concentrations were tested in triplicates. Incubations of cells with the test compounds lasted for 72 hours at 37° C., in 5% CO2 atmosphere and 100% humidity. At the end of incubation period Calcein AM in PBS was added into final concentration of 1 μg/ml. After another 1 hour of incubation fluorescence (FD) was measured with the Labsystem FIA Reader Fluoroscan Ascent (UK). Growth inhibition (GI) was estimated using the following equitation: GI=(mean FDdrug exposed wells−mean FDblank)/(mean FDcontrol wells−mean FDblank)×100%.

[1] = test system: breast carcinoma cell line MCF-7; test: Calcein AM cytotoxicity assay; assay type: cell-based, human; conditions: 72 hours, read-out: GI50 MCF7
Description: as §1, §2, §3

[2] = test system: T-lymphoblastic leukemia cell line CEM; test: Calcein AM cytotoxicity assay; assay type: cell-based, human; conditions: 72 hours
Description: as §1, §2, §3

[3] = test system: promyelocytic leukemia cell line HL-60; test: Calcein AM cytotoxicity assay; assay type: cell-based, human; conditions: 72 hours, read-out: GI50 HL60
Description: as §1, §2, §3

[4] = test system: osteosarcoma cell line HOS; test: Calcein AM cytotoxicity assay; assay type: cell-based, human; conditions: 72 hours
Description: as §1
as §2, with “Following human cell lines were used for routine screening of the compounds: T-lymphoblastic leukemia cell line CEM, promyelocytic leukemia cell line HL-60, erytroid leukemia cell line K-562, breast carcinoma cell line MCF-7, osteosarcoma cell line HOS and melanoma cell line G-361. Mouse” for “Mouse”
(§4) The cell suspensions were prepared and diluted according to the particular cell type and the expected target cell density (2.500-30.000 cells per well based on cell growth characteristics) and pippetted (80 μl) into 96-well plates. Inoculates were allowed a pre-incubation period of 24 hours at 37° C. and 5% CO2 for stabilisation. Tested compound was added in total volume of 20 μl of water at time zero. Usually, test compound was evaluated at six 3-fold dilutions. In routine testing, the highest concentration tested was 166.6 μM. All drug concentrations were tested in triplicates. Incubations of cells with the test compounds lasted for 72 hours at 37° C., in 5% CO2 atmosphere and 100% humidity. At the end of incubation period Calcein AM in PBS was added into final concentration of 1 μg/ml. After another 1 hour of incubation fluorescence (FD) was measured with the Labsystem FIA Reader Fluoroscan Ascent (UK). Growth inhibition (GI) was estimated using the following equitation: GI=(mean FDdrug exposed wells−mean FDblank)/(mean FDcontrol wells−mean FDblank)×100%. The GI50 value, the drug concentration causing 50% reduction of Calcein AM conversion, was calculated from the obtained dose response curves.

melanoma cell line G-361 = test: Calcein AM cytotoxicity assay; assay type: cell-based, human; conditions: 72 hours
Description: as §1
as §2, with “Following human cell lines were used for routine screening of the compounds: T-lymphoblastic leukemia cell line CEM, promyelocytic leukemia cell line HL-60, erytroid leukemia cell line K-562, breast carcinoma cell line MCF-7, osteosarcoma cell line HOS and melanoma cell line G-361. Mouse” for “Mouse”
as §4

[5] = test system: erytroid leukemia cell line K-562; test: Calcein AM cytotoxicity assay; assay type: cell-based, human; conditions: 72 hours
Description: as §1
as §2, with “Following human cell lines were used for routine screening of the compounds: T-lymphoblastic leukemia cell line CEM, promyelocytic leukemia cell line HL-60, erytroid leukemia cell line K-562, breast carcinoma cell line MCF-7, osteosarcoma cell line HOS and melanoma cell line G-361. Mouse” for “Mouse”
as §4

B16-F0 = test: Calcein AM cytotoxicity assay; assay type: cell-based, Mouse; conditions: 72 hours
[6] = test system: Human diploid fibroblasts HCA; test: Anti-aging activity: senescence-associated beta-galactosidase in human fibroblasts; assay type: cell-based
Description: In this example, effects of the compounds of this invention on the activity of a senescence biomarker senescence-associated β-galactosidase was studied. Human diploid fibroblasts HCA of various passage levels were used for this purpose. The tested compounds were added to the medium at each passage. After the incubation period, cells were washed with PBS and fixed with 2% formaldehyde and 0.2% glutaraldehyde in PBS. After another wash with PBS, they were incubated with the staining solution comprising potassium ferricyanide (5 mM), potassium ferrocyanide (5 mM), MgCl2 (2 mM), X-gal (5-bromo-4-chloro-3-indolyl-β-D-galactopyranoside) (1 mg/ml), in citric/phosphate buffer (pH 6.0) at 37° C. (without CO2) for at least 1 hour. Following the incubation period, the numbers of cells expressing senescence-associated β-galactosidase (blue cells) were counted using light microscope.

[7] = test system: Salmonella typhimurium TA98 and TA100; test: Ames test; assay type: cell-based; conditions: 2.5 to 5000 μg/plate
Description: Amest test was used in order to exclude mutagenic effect of 2-chloro-6-(4-hydroxyanilino)purine. Histidin auxotrophs of Salmonella typhimurium TA98 and TA100 were used as indicator strains and the test was carried out according to standard protocols (Ames et al., Mutation Research, 31, 347-364 (1975); Maron et al., Mutation Research, 113, 173-215 (1983)). Tested concentrations were as follows: 2.5, 5.0, 15, 50, 500, 1500, a 5000 μg/plate. The compound was not mutagenic even in the concentrations exceeding its solubility limit in the culture medium.

[8] = test system: Rat C6 glioma (ATCC No. CCL107); test: Anti-inflammatory activity: isoproterenol-induced cAMP synthesis (ELISA); assay type: cell-based; conditions: cAMP after 30 min, induced by (−)-isoproterenol
Description: Anti-inflammatory activity of several of the substituted 6-anilinopurine derivatives of this invention was determined; kinetin was also evaluated as a control. Rat C6 glioma (ATCC No. CCL107) was cultivated in monolayer in serum-free chemically defined medium containing Ham's F10/minimal essential medium (1:1 v/v), 2 mM L-glutamine, 1% (v/v) minimal essential medium vitamins (100×), 1% (v/v) minimal essential medium nonessential amino acids (100×), 100 U/ml penicillin, […], and 30 nM sodium selenite. Incubation was performed at 37° C. in a 100% humidified atmosphere. The assays were performed in the logarithmic growth phase at a density of 2.5×10^5 cells/cm^2. Intracellular cAMP synthesis was induced by addition of 5 mM (−)-isoproterenol; various amounts of test compounds were added at the same time as the (−)-isoproterenol. After 30 min incubation, the cellular amount of cAMP was determined using ELISA (cAMP-enzyme immunoassay kit from Amersham). The I50 values were determined from the dose-response curve in duplicate.

| Structure (SMILES) | GI50 (NIH-3T3 (fibroblasts)) | GI50 [1] | GI50 [2] | GI50 [3] | GI50 [4] | GI50 (melanoma cell line G-361) | GI50 [5] | GI50 (B16-F0) | Senescent Cells (%) HCA passage 25 ([6]; passage 25, cells expressing senescence-associated beta-galactosidase) | Senescent Cells (%) HCA passage 50 ([6]; passage 50, cells expressing senescence-associated beta-galactosidase) | Senescent Cells (%) HCA passage 80 ([6]; passage 80, cells expressing senescence-associated beta-galactosidase) | mutagenic effect [7] | IC50 ([8]; Rattus norvegicus, C6 glioma, 0.5 h, read-out: I50) | Effect (anti-inflammatory activity) [8] |
| --- | --- | --- | --- | --- | --- | --- | --- | --- | --- | --- | --- | --- | --- | --- |
| Oc1cccc(CNc2ncnc3nc[nH]c23)c1 [meta-topolin, reference compound] | > 167 µM | > 167 µM | 90.1 µM | 79.2 µM | > 167 µM | > 167 µM | 128 µM | 90.6 µM |  |  |  |  |  |  |
| Oc1ccccc1CNc1ncnc2nc[nH]c12 [ortho-topolin, reference compound] | > 167 µM | > 167 µM | 69.2 µM | 78 µM | > 167 µM | 103 µM | > 167 µM | 150 µM |  |  |  |  |  |  |
| Oc1ccc(Nc2nc(Cl)nc3nc[nH]c23)cc1 [Compound 10, 2-chloro-6-(4-hydroxyanilino)purine] |  |  |  |  |  |  |  |  | 4% | 6% | 22% | not mutagenic | 13 µM | Inhibition |
